The source of these data is patent US8476265B2, “Compounds-801” (AstraZeneca AB, priority 2010, dated 2013).

The target of assay [1] is T1, Adrenergic β2 (Homo sapiens, UniProt P07550).
T1 construct: Adherent H292 cells are removed from tissue culture flasks by treatment with Accutase™ cell detachment solution; endogenous in cells; host or cells: H292 cells
Kind of assay: Adrenergic β2 mediated cAMP production in H292 cells (AlphaScreen), concentration response. Particulars: for EC50: 60 min, 300 μM rolipram, read-out: β2 pEC50 (converted); for β2 Intrinsic Activity: fraction relative to the maximum activity determined for formoterol. The class given is cell-based. Summed up:
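H292 cells seeded overnight, pretreated 10 min with rolipram (300 μM final), then exposed to compounds 60 min at room temperature in HBSS/10 mM HEPES pH 7.4/5 mM glucose, 1% DMSO. Lysate cAMP quantified by AlphaScreen against a standard curve; four-parameter fit gives pEC50 and intrinsic activity relative to formoterol maximum.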

Assay [2] concerns the target T2, human muscarinic acetylcholine M3 receptor (Homo sapiens, UniProt P20309).
T2 construct: expressed in transfected cells; host or cells: CHO-K1 (Chinese Hamster Ovary) cell membranes
Kind of assay: Muscarinic 3 receptor binding assay ([3H]NMS competition, SPA), pIC50. The conditions noted are these: [3H]NMS 0.1 nM, CHO-K1 cell membranes expressing human M3 receptor. Summed up: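 Competition of [3H]NMS (0.1 nM, quarter Kd) binding to CHO-K1 membranes expressing human M3, SPA format, in 20 mM HEPES pH 7.4, 5 mM MgCl2, 0.1% BSA, 1% DMSO. Incubated 16 h at room temperature; non-specific binding with 1 μM atropine; pIC50 from specific binding.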

T1 sequence (P07550 whole entry): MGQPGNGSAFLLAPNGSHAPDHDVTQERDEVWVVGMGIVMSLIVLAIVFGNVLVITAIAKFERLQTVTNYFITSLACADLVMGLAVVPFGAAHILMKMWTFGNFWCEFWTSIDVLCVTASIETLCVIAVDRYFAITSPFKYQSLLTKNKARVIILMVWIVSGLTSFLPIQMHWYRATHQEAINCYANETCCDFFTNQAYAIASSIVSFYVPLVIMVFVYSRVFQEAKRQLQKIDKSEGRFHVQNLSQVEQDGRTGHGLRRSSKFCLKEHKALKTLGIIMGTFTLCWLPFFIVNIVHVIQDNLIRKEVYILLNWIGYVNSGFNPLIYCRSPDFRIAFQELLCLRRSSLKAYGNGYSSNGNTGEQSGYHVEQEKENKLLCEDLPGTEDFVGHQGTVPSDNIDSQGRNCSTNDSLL
T2 sequence (P20309 whole entry): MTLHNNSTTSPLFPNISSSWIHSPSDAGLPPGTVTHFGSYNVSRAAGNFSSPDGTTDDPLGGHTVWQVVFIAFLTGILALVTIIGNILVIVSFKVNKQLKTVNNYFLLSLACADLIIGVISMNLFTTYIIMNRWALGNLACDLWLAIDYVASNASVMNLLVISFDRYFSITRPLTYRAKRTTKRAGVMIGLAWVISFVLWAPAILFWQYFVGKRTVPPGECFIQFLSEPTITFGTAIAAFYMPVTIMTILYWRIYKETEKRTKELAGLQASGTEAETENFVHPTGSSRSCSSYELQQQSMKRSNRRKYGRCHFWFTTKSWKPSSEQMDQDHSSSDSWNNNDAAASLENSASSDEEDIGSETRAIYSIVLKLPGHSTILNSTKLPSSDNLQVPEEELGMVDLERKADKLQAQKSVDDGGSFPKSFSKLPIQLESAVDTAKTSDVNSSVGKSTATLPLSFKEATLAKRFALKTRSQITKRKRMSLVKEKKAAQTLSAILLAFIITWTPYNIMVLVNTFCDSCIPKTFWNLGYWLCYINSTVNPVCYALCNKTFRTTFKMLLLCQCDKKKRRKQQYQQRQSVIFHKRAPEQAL

As for `CCN(CCNCCc1ccc(O)c2[nH]c(=O)sc12)C(=O)CCOCCc1csc(CN2CCC3(CC2)CN(C(=O)c2csc(C(C)C)n2)CCO3)c1` [Example 48, N-Ethyl-N-(2-(2-(4-hydroxy-2-oxo-2,3-dihydrobenzo[d]thiazol-7-yl)ethylamino)ethyl)-3-(2-(5-((4-(2-isopropylthiazole-4-carbonyl)-1-oxa-4,9-diazaspiro[5.5]undecan-9-yl)methyl)thiophen-3-yl)ethoxy)propanamide ditrifluoroacetate], in assay [1], the EC50 was 200 nM and the “β2 Intrinsic Activity” value came out at 0.9. Also, in assay [2], the half-maximal inhibitory concentration (IC50) was 0.2 nM.
The corresponding values for `CC(C)c1nc(C(=O)N2CCOC3(CCN(Cc4cc(CCOCCC(=O)N(CCNCCc5ccc(O)c6c5OCC(=O)N6)C5CCCCC5)ccc4Cl)CC3)C2)cs1` [Example 49, 3-(4-Chloro-3-((4-(2-isopropylthiazole-4-carbonyl)-1-oxa-4,9-diazaspiro[5.5]undecan-9-yl)methyl)phenethoxy)-N-cyclohexyl-N-(2-(2-(5-hydroxy-3-oxo-3,4-dihydro-2H-benzo[b][1,4]oxazin-8-yl)ethylamino)ethyl)propanamide ditrifluoroacetate] are 158 nM, 0.9 and 3.16 nM.
Regarding `CCN(CCNCCc1ccc(O)c2[nH]c(=O)sc12)C(=O)CCOCCc1cc(Cl)cc(CN2CCC3(CC2)CN(C(=O)c2csc(C(C)C)n2)CCO3)c1` [Example 50, 3-(3-Chloro-5-((4-(2-isopropylthiazole-4-carbonyl)-1-oxa-4,9-diazaspiro[5.5]undecan-9-yl)methyl)phenethoxy)-N-ethyl-N-(2-(2-(4-hydroxy-2-oxo-2,3-dihydrobenzo[d]thiazol-7-yl)ethylamino)ethyl)propanamide ditrifluoroacetate], in assay [1], the EC50 is 126 nM and the “β2 Intrinsic Activity” value is given as 0.9. In addition, the half-inhibitory concentration (IC50) in assay [2] was 794 nM.
The corresponding values for `CC(C)c1nc(C(=O)N2CCOC3(CCN(CCOc4ccc(CCOCCC(=O)N(CCNCCc5ccc(O)c6c5OCC(=O)N6)C5CCCCC5)cc4)CC3)C2)cs1` [Example 51, N-Cyclohexyl-N-(2-(2-(5-hydroxy-3-oxo-3,4-dihydro-2H-benzo[b][1,4]oxazin-8-yl)ethylamino)ethyl)-3-(4-(2-(4-(2-isopropylthiazole-4-carbonyl)-1-oxa-4,9-diazaspiro[5.5]undecan-9-yl)ethoxy)phenethoxy)propanamide ditrifluoroacetate] are 63.1 nM, 1.1 and 3.98 nM.
As to `CCN(CCNCCc1ccc(O)c2[nH]c(=O)sc12)C(=O)CCOCCc1ccc(CCN2CCC3(CC2)CN(C(=O)c2csc(C(C)C)n2)CCO3)s1` [Example 52, N-Ethyl-N-(2-(2-(4-hydroxy-2-oxo-2,3-dihydrobenzo[d]thiazol-7-yl)ethylamino)ethyl)-3-(2-(5-(2-(4-(2-isopropylthiazole-4-carbonyl)-1-oxa-4,9-diazaspiro[5.5]undecan-9-yl)ethyl)thiophen-2-yl)ethoxy)propanamide ditrifluoroacetate], in assay [1], the EC50 was 12.6 nM and the “β2 Intrinsic Activity” value is 0.9. The same molecule gave an IC50 in assay [2] of 1.58 nM.
Take `CC(C)c1nc(C(=O)N2CCOC3(CCN(CCOc4cccc(CCOCCC(=O)N(CCNCCc5ccc(O)c6c5OCC(=O)N6)C5CCCCC5)c4)CC3)C2)cs1` [Example 53, N-Cyclohexyl-N-(2-(2-(5-hydroxy-3-oxo-3,4-dihydro-2H-benzo[b][1,4]oxazin-8-yl)ethylamino)ethyl)-3-(3-(2-(4-(2-isopropylthiazole-4-carbonyl)-1-oxa-4,9-diazaspiro[5.5]undecan-9-yl)ethoxy)phenethoxy)propanamide ditrifluoroacetate]: in assay [1], the EC50 is 20 nM and the “β2 Intrinsic Activity” value turned out to be 1.0. For the same molecule, in assay [2], the IC50 is 7.94 nM.
As to `CC(C)c1nc(C(=O)N2CCOC3(CCN(Cc4cccc(SCCCOCCC(=O)N(CCNCCc5ccc(O)c6c5OCC(=O)N6)C5CCCC5)c4)CC3)C2)cs1` [Example 54, N-Cyclopentyl-N-(2-(2-(5-hydroxy-3-oxo-3,4-dihydro-2H-benzo[b][1,4]oxazin-8-yl)ethylamino)ethyl)-3-(3-(3-((4-(2-isopropylthiazole-4-carbonyl)-1-oxa-4,9-diazaspiro[5.5]undecan-9-yl)methyl)phenylthio)propoxy)propanamide ditrifluoroacetate], in assay [1], the EC50 is 100 nM and the “β2 Intrinsic Activity” value was 0.9. Moreover, the half-maximal inhibitory concentration (IC50) in assay [2] is 0.1 nM.
As to `CC(C)c1nc(C(=O)N2CCOC3(CCN(Cc4cccc(SCCOCCC(=O)N(C)CCNCCc5ccc(O)c6[nH]c(=O)sc56)c4)CC3)C2)cs1` [Example 55, N-(2-(2-(4-Hydroxy-2-oxo-2,3-dihydrobenzo[d]thiazol-7-yl)ethylamino)ethyl)-3-(2-(3-((4-(2-isopropylthiazole-4-carbonyl)-1-oxa-4,9-diazaspiro[5.5]undecan-9-yl)methyl)phenylthio)ethoxy)-N-methylpropanamide ditrifluoroacetate], in assay [1], the EC50 is 100 nM and the “β2 Intrinsic Activity” value is on record as 0.6. Further, in assay [2], the IC50 is 0.126 nM.
As to `CC(C)c1nc(C(=O)N2CCOC3(CCN(Cc4csc(CCOCCC(=O)N(CCNCCc5ccc(O)c6c5OCC(=O)N6)C5CCCCC5)c4)CC3)C2)cs1` [Example 56, N-Cyclohexyl-N-(2-(2-(5-hydroxy-3-oxo-3,4-dihydro-2H-benzo[b][1,4]oxazin-8-yl)ethylamino)ethyl)-3-(2-(4-((4-(2-isopropylthiazole-4-carbonyl)-1-oxa-4,9-diazaspiro[5.5]undecan-9-yl)methyl)thiophen-2-yl)ethoxy)propanamide ditrifluoroacetate], in assay [1], the EC50 was 200 nM and the “β2 Intrinsic Activity” value was 1.2. The molecule also showed an IC50 in assay [2] of 0.0631 nM.
Turning to `CC(C)c1nc(C(=O)N2CCOC3(CCN(Cc4cccc(CCCOCCC(=O)N(CCNCCc5ccc(O)c6c5OCC(=O)N6)C5CCCCC5)c4)CC3)C2)cs1` [Example 57, N-Cyclohexyl-N-(2-(2-(5-hydroxy-3-oxo-3,4-dihydro-2H-benzo[b][1,4]oxazin-8-yl)ethylamino)ethyl)-3-(3-(3-((4-(2-isopropylthiazole-4-carbonyl)-1-oxa-4,9-diazaspiro[5.5]undecan-9-yl)methyl)phenyl)propoxy)propanamide ditrifluoroacetate], in assay [1], the EC50 is 316 nM and the “β2 Intrinsic Activity” value was 0.9. The same molecule gave an IC50 in assay [2] of less than 0.0501 nM.
In the case of `CC(C)c1nc(C(=O)N2CCOC3(CCN(Cc4cccc(CCCCOCCC(=O)N(CCNCCc5ccc(O)c6c5OCC(=O)N6)C5CCCCC5)c4)CC3)C2)cs1` [Example 58, N-Cyclohexyl-N-(2-(2-(5-hydroxy-3-oxo-3,4-dihydro-2H-benzo[b][1,4]oxazin-8-yl)ethylamino)ethyl)-3-(4-(3-((4-(2-Isopropylthiazole-4-carbonyl)-1-oxa-4,9-diazaspiro[5.5]undecan-9-yl)methyl)phenyl)butoxy)propanamide ditrifluoroacetate], in assay [1], the EC50 was 100 nM and the “β2 Intrinsic Activity” value came out at 0.9. The molecule also gave an IC50 in assay [2] of 0.0631 nM.
In the case of `CC(C)c1nc(C(=O)N2CCOC3(CCN(Cc4cccc(OCCOCCC(=O)N(CCNCCc5ccc(O)c6c5OCC(=O)N6)C5CCCCC5)c4)CC3)C2)cs1` [Example 59, N-Cyclohexyl-N-(2-(2-(5-hydroxy-3-oxo-3,4-dihydro-2H-benzo[b][1,4]oxazin-8-yl)ethylamino)ethyl)-3-(2-(3-((4-(2-isopropylthiazole-4-carbonyl)-1-oxa-4,9-diazaspiro[5.5]undecan-9-yl)methyl)phenoxy)ethoxy)propanamide ditrifluoroacetate], in assay [1], the EC50 is 631 nM and the “β2 Intrinsic Activity” value worked out at 0.9. Moreover, the IC50 in assay [2] is 0.251 nM.
As to `CC(C)c1nc(C(=O)N2CCOC3(CCN(Cc4cccc(OCCCOCCC(=O)N(CCNCCc5ccc(O)c6c5OCC(=O)N6)C5CCCCC5)c4)CC3)C2)cs1` [Example 60, N-Cyclohexyl-N-(2-(2-(5-hydroxy-3-oxo-3,4-dihydro-2H-benzo[b][1,4]oxazin-8-yl)ethylamino)ethyl)-3-(3-(3-((4-(2-isopropylthiazole-4-carbonyl)-1-oxa-4,9-diazaspiro[5.5]undecan-9-yl)methyl)phenoxy)propoxy)propanamide ditrifluoroacetate], in assay [1], the EC50 was 50.1 nM and the “β2 Intrinsic Activity” value was 0.7. Moreover, the half-inhibitory concentration (IC50) in assay [2] was 0.2 nM.
For the molecule `CCN(CCNCCc1ccc(O)c2[nH]c(=O)sc12)C(=O)CCOCCc1cccc(OCCCN2CCC3(CC2)CN(C(=O)c2csc(C(C)C)n2)CCO3)c1` [Example 61, N-Ethyl-N-(2-(2-(4-hydroxy-2-oxo-2,3-dihydrobenzo[d]thiazol-7-yl)ethylamino)ethyl)-3-(3-(3-(4-(2-isopropylthiazole-4-carbonyl)-1-oxa-4,9-diazaspiro[5.5]undecan-9-yl)propoxy)phenethoxy)propanamide ditrifluoroacetate], in assay [1], the EC50 is 20 nM and the “β2 Intrinsic Activity” value is 0.7. This molecule had an IC50 in assay [2] of 2 nM.
On to `CCN(CCNCCc1ccc(O)c2[nH]c(=O)sc12)C(=O)CCOCCc1ccc(OCCCN2CCC3(CC2)CN(C(=O)c2csc(C(C)C)n2)CCO3)cc1` [Example 62, N-Ethyl-N-(2-(2-(4-hydroxy-2-oxo-2,3-dihydrobenzo[d]thiazol-7-yl)ethylamino)ethyl)-3-(4-(3-(4-(2-isopropylthiazole-4-carbonyl)-1-oxa-4,9-diazaspiro[5.5]undecan-9-yl)propoxy)phenethoxy)propanamide ditrifluoroacetate], for which, in assay [1], the EC50 is 100 nM and the “β2 Intrinsic Activity” value was found to be 0.7. The molecule further gave an IC50 in assay [2] of 0.794 nM.

Usually IC50 stands for the concentration that gives 50% inhibition. Low readings indicate inhibition by little substance, high ones a need for much substance.
